For one data set, the target named is Heat shock protein HSP90 (Homo sapiens, UniProt P07900+P08238). Briefly: Inhibition of HSP90 (unknown origin). It is filed as protein assay.
The target in the next data set is CDK8/Cyclin C (Homo sapiens, UniProt P49336). Briefly: Inhibition of CDK8/Cyclin C (unknown origin) using RBER-IRStide as substrate by radiometric assay. It is filed as protein-complex assay.
The nature of data set [1]: Antiproliferative activity against HUVEC cells assessed as inhibition of cell growth. The format is toxicity, cell-based. Conditions: human.
Data set [2] addresses T1, Cyclin-dependent kinase 8 (Homo sapiens, UniProt P49336). Briefly: Inhibition of CDK8 (unknown origin).
Another data set relates to HCT-116. Briefly: Anticancer activity against human HCT-116 cells assessed as inhibition of cell growth by SRB assay. It is filed as functional, cell-based. For orientation: Sulforhodamine B stains cellular protein and so reports cell mass.
The target of data set [3] is T1, Cyclin-dependent kinase 8. Briefly: Binding affinity to CDK8 (unknown origin).

This is an account of results in ChEMBL document CHEMBL5241055, “Angel or Devil ? - CDK8 as the new drug target” (Eur J Med Chem, 2021).

Where only a bound is given, the exact number is not on record here.

CDK8/Cyclin C, sequence (P49336 whole entry): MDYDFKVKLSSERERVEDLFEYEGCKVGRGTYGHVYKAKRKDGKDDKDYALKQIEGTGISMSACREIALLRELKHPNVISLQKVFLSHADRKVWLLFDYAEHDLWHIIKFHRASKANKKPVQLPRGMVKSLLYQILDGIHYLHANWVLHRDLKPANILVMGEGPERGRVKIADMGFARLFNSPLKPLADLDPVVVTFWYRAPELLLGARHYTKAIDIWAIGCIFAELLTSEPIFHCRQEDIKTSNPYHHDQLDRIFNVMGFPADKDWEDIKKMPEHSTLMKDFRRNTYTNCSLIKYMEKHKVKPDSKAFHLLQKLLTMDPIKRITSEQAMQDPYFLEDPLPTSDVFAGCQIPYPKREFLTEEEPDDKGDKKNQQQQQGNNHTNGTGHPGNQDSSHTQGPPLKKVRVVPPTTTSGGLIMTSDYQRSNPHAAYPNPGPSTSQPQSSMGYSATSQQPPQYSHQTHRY
CDK8/Cyclin C, sequence (P24863 whole entry, further chain): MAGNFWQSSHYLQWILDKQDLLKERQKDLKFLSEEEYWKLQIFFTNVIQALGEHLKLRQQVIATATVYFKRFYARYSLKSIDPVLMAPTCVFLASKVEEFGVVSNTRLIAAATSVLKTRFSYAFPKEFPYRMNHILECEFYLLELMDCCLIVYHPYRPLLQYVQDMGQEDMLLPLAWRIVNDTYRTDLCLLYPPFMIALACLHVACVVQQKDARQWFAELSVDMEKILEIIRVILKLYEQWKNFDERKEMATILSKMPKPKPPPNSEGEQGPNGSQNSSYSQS
T1 sequence (P49336 whole entry): as the sequence (P49336 whole entry) above

`CNC(=O)c1ccc2[nH]nc(Cc3ccc4c(cnn4C)c3)c2c1` yielded an IC50 on Heat shock protein HSP90 greater than 10000 nM.
Take `N#Cc1ccc2ncnc(NCCc3ccccc3)c2c1`: the IC50 at CDK8/Cyclin C came out at 640 nM.
For the compound `CCCNc1ncnc2ccc(Br)cc12`, the IC50 at CDK8/Cyclin C was found to be 6100 nM.
As for `Cc1cnccc1/C=C/[C@@H](C)[C@H]1CC[C@@H]2[C@]1(C)CCC1=CC3=CC[C@@H](N(C)C)C[C@]34CC[C@@]12O4`, the IC50 in data set [1] is 800 nM.
The same measure, in the same setting: next, `CN(C)[C@@H]1C=CC2=CC3=CC[C@]4(C)[C@@H](c5ccc6ccncc6c5)CC[C@H]4[C@@]34CC[C@]2(C1)O4`: 8 nM; `CC1CN(C)CCC1CCC(C)[C@H]1CC[C@@H]2[C@]1(C)CC=C1C=C3C=C[C@@H](N(C)C)C[C@]34CC[C@@]12O4` (stereo partly specified): 1900 nM.
Turning to `Cc1cccc(Cc2n[nH]c3cc(O)c(C(=O)N4Cc5ccccc5C4)cc23)c1`, the 50% inhibitory concentration (IC50) in data set [2] is 15 nM; at Heat shock protein HSP90, 110 nM.
For the compound `CN(C)[C@H]1C[C@@]23CC[C@@]4(O2)C(=CC[C@@]2(C)[C@H]4CC(=O)[C@]2(O)c2ccc4ccncc4c2)C=C3[C@@H](O)[C@@H]1O`, the IC50 in data set [1] was 150 nM.
`N#Cc1ccc2ncnc(NCCc3ccc4ccccc4c3)c2c1` returned an IC50 on CDK8/Cyclin C of 740 nM.
`Cc1cnccc1CC[C@@H](C)[C@H]1CC[C@@H]2[C@]1(C)CCC1=CC3=CC[C@@H](N(C)C)C[C@]34CC[C@@]12O4`: the IC50 in data set [1] is 350 nM.
On to `CN(C)[C@H]1C[C@@]23CC[C@@]4(O2)C(=CC[C@@]2(C)[C@H]4C[C@H](O)[C@@H]2c2ccc4ccncc4c2)C=C3[C@@H](O)[C@@H]1O`, for which the IC50 in data set [1] turned out to be 1100 nM.
As to `COc1ccc(/C=N/c2ncc(-c3cc4ccccc4oc3=O)o2)cc1O`, the IC50 in the data set on HCT-116 turned out to be 71800 nM.
`Cc1ccc(-n2nc(C(C)(C)C)cc2NC(N)=O)cc1` showed a Kd in data set [3] of 3240 nM.
As to `CC1CN(C)CCC1CC[C@@H](C)[C@H]1CC[C@@H]2[C@]1(C)CCC1=CC3=CC[C@@H](N(C)C)C[C@]34CC[C@@]12O4` (stereo partly specified), the IC50 in data set [1] was 450 nM.
On to `CN(C)[C@H]1C[C@@]23CC[C@@]4(O2)C(=CC[C@]2(C)[C@@H](c5ccc6ccncc6c5)C(=O)C[C@H]24)C=C3[C@@H](O)[C@@H]1O`, for which the IC50 in data set [1] stood at 19 nM.

The IC50 is the concentration needed to halve the response being measured. One may read the Kd as the constant that tells how readily two partners part at equilibrium.
